The values that follow come from patent US12534456B2, “Heterocyclyl pyridines as novel fungicides” (Bayer Aktiengesellschaft, priority 2020, dated 2026).

Molecules are shown by their SMILES.

This data set in a line: physchem. The class given is physicochemical. The protocol: Measurement of Log P values as provided herein was performed according to EEC directive 79/831 Annex V.A8 by HPLC (High Performance Liquid Chromatography) on reversed phase columns with the following methods: • ^[a]
If more than one Log P value is available within the same method, all the values are given and separated by “+”.
Lambda-max-values were determined using UV-spectra from 200 nm to 400 nm and the peak values of the chromatographic signals
As to `Cc1ccc(CC2CN=C(c3cc(Cl)ncc3Oc3cccc(C(F)(F)F)c3)N2)c(C)c1` (racemic) [Compound I-081], the LogP was 2.64^[a].
As for `Cc1ccc(CC2CON=C(c3cc(Cl)nc(F)c3Oc3cccc(C(F)(F)F)c3)N2)c(C)c1` (racemic) [Compound I-082], the LogP was 4.97^[a].
`Cc1cc(Cl)ccc1CC1CON=C(c2cc(Cl)ncc2Oc2cccc(Cl)c2F)N1` (racemic) [Compound I-083]: the LogP is 4.59^[a].
`Cc1ccc(CC2CNN=C(c3cc(Cl)ncc3Oc3cccc(C(F)(F)F)c3)N2)c(C)c1` (racemic) [Compound I-084]: the LogP was 2.86^[a].
For `Cc1ccc(CC2CON=C(c3cc(Cl)ncc3Oc3cccc(C=O)c3)N2)c(C)c1` (racemic) [Compound I-085] the value was 3.64^[a]; for `Cc1ccc(CC2CON=C(c3cc(Cl)ncc3Oc3ccc4ccccc4c3)N2)c(C)c1` (racemic) [Compound I-086], 4.77^[a]; for `Cc1ccc(CC2CON=C(c3cc(Cl)ncc3Oc3cccc(Cl)c3F)N2)c(Cl)c1` (racemic) [Compound I-087], 4.66^[a].
For `Cc1ccc(CC2CON=C(c3cc(Cl)ncc3Oc3cccc(-c4ccccn4)c3)N2)c(C)c1` (racemic) [Compound I-089] the value was 3.87^[a]; for `FC(F)(F)Sc1cccc(Oc2cnc(Cl)cc2C2=NOCC(Cc3ccc(Cl)cc3Cl)N2)c1` (racemic) [Compound I-090], 5.16^[a]; for `C#Cc1cc(C2=NOCC(Cc3ccc(Br)cc3C)N2)c(Oc2cccc(C(F)(F)F)c2)cn1` (racemic) [Compound I-091], 4.19^[a].
Take `CCc1cccc(Oc2cnc(Cl)cc2C2=NOCC(Cc3ccc(C)cc3C)N2)c1` (racemic) [Compound I-092]: the LogP is 5.04^[a].
For `Cc1ccc(CC2CON=C(c3cc(Cl)ncc3Oc3cnc4ccccc4c3)N2)c(C)c1` (racemic) [Compound I-093] the value was 3.65^[a]; for `Cc1ccc(CC2CN(C=O)N=C(c3cc(Cl)ncc3Oc3cccc(C(F)(F)F)c3)N2)c(C)c1` (racemic) [Compound I-094], 4.49^[a]; for `Cc1ccc(CC2CON=C(c3cc(Cl)ncc3Oc3cccc(S(C)(=O)=O)c3)N2)c(C)c1` (racemic) [Compound I-095], 3.25^[a].
As for `Cn1cc(C2CON=C(c3cc(Cl)ncc3Oc3cccc(C(F)(F)F)c3)N2)c2ccccc21` (racemic) [Compound I-096], the LogP was 4.01^[a].
Take `C=Cc1cccc(Oc2cnc(Cl)cc2C2=NOCC(Cc3ccc(Cl)cc3Cl)N2)c1` (racemic) [Compound I-099]: the LogP was 4.85^[a].
Take `Cc1ccc(CC2CON=C(c3cc(Cl)ncc3Oc3ccc4c(c3)CCC4)N2)c(C)c1` (racemic) [Compound I-100]: the LogP was 5.16^[a].
As to `Cc1ccc(CC2CON=C(c3cc(Cl)ncc3Oc3cccc(C4CCC4)c3)N2)c(C)c1` (racemic) [Compound I-101], the LogP was 5.50^[a].
`Fc1c(Cl)cccc1Oc1cnc(Cl)cc1C1=NOCC(Cc2ccc(Cl)cc2Cl)N1` (racemic) [Compound I-102]: the LogP was 4.71^[a].
On to `Cc1ccc(CC2CON=C(c3cc(Cl)ncc3Oc3cccc(Cl)c3)N2)c(Cl)c1` (racemic) [Compound I-103], for which the LogP was 4.66^[a].
Regarding `Cc1ccc(CC2CON=C(c3cc(Cl)ncc3Oc3cccc(Br)c3)N2)c(C)c1` (racemic) [Compound I-104], the LogP is 4.74^[a].
With `FC(F)(F)c1cccc(Oc2cnc(Cl)cc2C2=NOCC(Cc3ccc(C(F)(F)F)cc3Cl)N2)c1` (racemic) [Compound I-105], the LogP is 4.84^[a].
On to `FC(F)(F)c1cccc(Oc2cnc(Cl)cc2C2=NCC(Cc3ccc(Cl)cc3)N2)c1` (racemic) [Compound I-106], for which the LogP was 2.45^[a].
Then `FC(F)(F)c1cccc(Oc2cnc(Cl)cc2C2=NOCCC(c3ccc(Cl)cc3)N2)c1` (racemic) [Compound I-108], with 2.12^[a]; and `Cc1ccc(C2(C)NC(c3cc(Cl)ncc3Oc3cccc(C(F)(F)F)c3)=NO2)cc1` (racemic) [Compound I-109], with 4.59^[a].
Consider `Cc1ccc(CC2CON=C(c3cc(Cl)ncc3Oc3cccc(C(F)(F)F)c3)N2)cc1` (racemic) [Compound I-110], for which the LogP is 4.31^[a].
For the compound `Cc1ccc(CC2CON=C(c3cc(Cl)ncc3Oc3ccc4c(c3)CCO4)N2)c(C)c1` (racemic) [Compound I-111], the LogP was 4.23^[a].
With `CCN(C)c1cc(C2=NOCC(Cc3ccc(C)cc3Cl)N2)c(Oc2cccc(Cl)c2F)cn1` (racemic) [Compound I-112], the LogP is 4.59^[a].
Then `Cc1ccc(CC2CON=C(c3cc(Cl)ncc3Oc3cccc(C4COC4)c3)N2)c(C)c1` (racemic) [Compound I-113], with 3.68^[a]; and `Cc1ccc(CC2CON=C(c3cc(Cl)ncc3Oc3ccc4c(c3)OC(F)(F)O4)N2)c(C)c1` (racemic) [Compound I-114], with 4.65^[a].
Then `Fc1c(Br)cccc1Oc1cnc(Cl)cc1C1=NOCC(Cc2ccc(Cl)cc2Cl)N1` (racemic) [Compound I-115], with 4.69^[a]; and `Cc1ccc(CC2CON=C(c3cc(Cl)ncc3Oc3cccc4c3CCC4)N2)c(C)c1` (racemic) [Compound I-116], with 5.14^[a].
On to `CC(=O)c1cccc(Oc2cnc(Cl)cc2C2=NOCC(Cc3ccc(C)cc3C)N2)c1` (racemic) [Compound I-117], for which the LogP was 3.70^[a].
For `Cc1ccc(Cl)c(CC2CON=C(c3cc(Cl)ncc3Oc3cccc(Cl)c3F)N2)c1` (racemic) [Compound I-118] the value was 4.52^[a]; for `Cc1ccc(CC2CON=C(c3cc(Cl)ncc3Oc3ccc4ccsc4c3)N2)c(C)c1` (racemic) [Compound I-119], 4.59^[a].
For the compound `Cc1ccc(CC2CON=C(c3cc(Cl)ncc3Oc3ccc(OC(F)(F)F)cc3)N2)c(C)c1` (racemic) [Compound I-120], the LogP was 4.76^[a].
With `CSc1c(Cl)ncc(Oc2cccc(C(F)(F)F)c2)c1C1=NOCC(Cc2ccc(C)cc2C)N1` (racemic) [Compound I-121], the LogP is 4.67^[a].
For `Cc1ccc(CC2CON=C(c3c(Oc4cccc(C(F)(F)F)c4)cnc(Cl)c3C)N2)c(C)c1` (racemic) [Compound I-124] the value was 4.55^[a]; for `FC(F)(F)c1cncc(Oc2cnc(Cl)cc2C2=NOCC(Cc3ccc(Cl)cc3Cl)N2)c1` (racemic) [Compound I-125], 3.71^[a]; for `COCCOc1cccc(Oc2cnc(Cl)cc2C2=NOCC(Cc3ccc(C)cc3C)N2)c1` (racemic) [Compound I-126], 4.15^[a].
As to `Cc1ccc(CC2CON=C(c3cc(Cl)nc(Cl)c3Oc3cccc(C(F)(F)F)c3)N2)c(C)c1` (racemic) [Compound I-127], the LogP is 5.08^[a].
Then `FC(F)(F)c1cccc(Oc2cnc(Cl)cc2C2=NOCC(Cc3ccc(Cl)cc3Cl)N2)n1` (racemic) [Compound I-128], with 4.44^[a]; and `COCCOc1c(Cl)ncc(Oc2cccc(C(F)(F)F)c2)c1C1=NOCC(Cc2ccc(C)cc2C)N1` (racemic) [Compound I-129], with 4.51^[a].
As to `Cc1ccc(CC2CON=C(c3cc(Cl)ncc3Oc3cccc(Cl)c3)N2)c(C)c1` (single isomer, unassigned) [Compound I-011], the LogP was 4.53^[a].
Consider `Cc1ccc(CC2CON=C(c3cc(Cl)ncc3Oc3cccc(Cl)c3)N2)c(C)c1` (single isomer, unassigned) [Compound I-012], for which the LogP is 4.53^[a].
For the compound `Cc1ccc(CC2CON=C(c3cc(Cl)ncc3Oc3cccc(C4CC4)c3)N2)c(C)c1` (single isomer, unassigned) [Compound I-019], the LogP was 4.89^[a].
With `Cc1ccc(CC2CON=C(c3cc(Cl)ncc3Oc3cccc(C4CC4)c3)N2)c(C)c1` (single isomer, unassigned) [Compound I-020], the LogP is 4.89^[a].
For the compound `Cc1ccc(CC2CON=C(c3cc(Cl)ncc3Oc3cccc(C4CC4)c3F)N2)c(C)c1` (single isomer, unassigned) [Compound I-021], the LogP is 4.93^[a].
In the case of `Cc1ccc(CC2CON=C(c3cc(Cl)ncc3Oc3cccc(C4CC4)c3F)N2)c(C)c1` (single isomer, unassigned) [Compound I-022], the LogP was 4.93^[a].
For `O=C(NC(CON1C(=O)c2ccccc2C1=O)Cc1ccc(Br)cc1Cl)c1cc(Cl)ncc1Oc1cccc(C2CC2)c1` (centres unmarked) [3-02], the LogP is 5.75^[a].
In the case of `O=C(NC(CON1C(=O)c2ccccc2C1=O)Cc1ccc(Cl)cc1Cl)c1cc(Cl)ncc1Oc1cccc(C2CC2)c1` (centres unmarked) [3-03], the LogP was 5.62^[a].
As to `O=C(NC(CON1C(=O)c2ccccc2C1=O)Cc1ccc(Cl)cc1Cl)c1cc(Cl)ncc1Oc1cccc(C2CC2)c1F` (centres unmarked) [3-04], the LogP was 5.54^[a].
In the case of `O=C(NC(CON1C(=O)c2ccccc2C1=O)Cc1ccc(Br)cc1Cl)c1cc(Cl)ncc1Oc1cccc(C2CC2)c1F` (centres unmarked) [3-05], the LogP is 5.62^[a].
For the compound `Cc1ccc(CC(CON2C(=O)c3ccccc3C2=O)NC(=O)c2cc(Cl)ncc2Oc2cccc(C3CC3)c2F)c(C)c1` (centres unmarked) [3-06], the LogP was 5.38^[a].
On to `Cc1cccc(Oc2cnc(Cl)cc2C(=O)NC(CON2C(=O)c3ccccc3C2=O)Cc2ccc(C)cc2C)c1` (centres unmarked) [3-07], for which the LogP is 5.16^[a].
Consider `COc1cccc(Oc2cnc(Cl)cc2C(=O)NC(CON2C(=O)c3ccccc3C2=O)Cc2ccc(Br)cc2Cl)c1` (centres unmarked) [3-08], for which the LogP is 5.05^[a].
As for `COc1cccc(Oc2cnc(Cl)cc2C(=O)NC(CON2C(=O)c3ccccc3C2=O)Cc2ccc(C)cc2C)c1` (centres unmarked) [3-09], the LogP was 4.80^[a].
Consider `O=C(NC(CON1C(=O)c2ccccc2C1=O)Cc1ccc(Br)cc1Cl)c1cc(Cl)ncc1Oc1cccc(C(F)F)c1` (centres unmarked) [3-10], for which the LogP was 5.00^[a].
For `Cc1ccc(CC(CON2C(=O)c3ccccc3C2=O)NC(=O)c2cc(Cl)ncc2Oc2cccc(C(F)F)c2)c(C)c1` (centres unmarked) [3-11], the LogP was 4.69^[a].
